System: skeletal muscle capillaries
Test: Microvascular perfusion viewed in real time through a dissecting microscope after topical application
Format: in vivo, mouse
From the text: Newborn mice pups were anesthetized after feeding to ensure a stomach filled with milk, for the purpose of providing optical contrast. […] Histamine, papaverine, or both, dissolved in PBS, were applied topically to the capillaries. Video recordings were made against a time line with an attached camera.

SMILES: NCCc1c[nH]cn1 [histamine]
- effect on microvascular perfusion (10 millimolar): rapidly induced vasodilation, and was followed within seconds by progressive capillary stasis

SMILES: COc1ccc(Cc2nccc3cc(OC)c(OC)cc23)cc1OC [papaverine]
- effect on microvascular perfusion (300 micrograms per milliliter): capillary recruitment and increased local perfusion

— patent publication US6673039B1, “Compositions, kits, methods, and apparatus for transvascular delivery of a composition to an extravascular tissue of a mammal” (Trustees of the University of Pennsylvania, priority 1997, dated 2004)
